Source: ChEMBL document CHEMBL5728270, “Immunomodulator compounds” (2021)
pIC50: −log10 of the molar value.

Assay: Enzyme-Linked Immunosorbent Assay ELISA: 96 Well plates were coated with […] of human PD-L1 (obtained from R&D) in PBS overnight at 4° C. The wells were then blocked with 2% BSA in PBS (W/V) with 0.05% TWEEN-20 for 1 hour at 37° C. The plates were washed 3 times with PBS/0.05% TWEEN-20 and the compounds were serial diluted (1:5) in dilution medium and added to the ELISA plates. Human PD-1 and biotin 0.3 μg/mL (ACRO Biosystems) were added and incubated for 1 hour at 37° C. then washed 3 times with PBS/0.05% TWEEN-20. A second block was performed with 2% BSA in PBS (W/V)/0.05% TWEEN-20 for 10 min at 37° C. and was washed 3 times with PBS/0.05% TWEEN-20. Streptavidin-HRP was added for 1 hour at 37° C. then washed 3 times with PBS/0.05% TWEEN-20. TMB substrate was added and reacted for 20 min at 37° C. A stop solution (2 N aqueous H2SO4) was added. The absorbance was read at 450 nm using a micro-plate spectrophotometer.

| pIC50 | SMILES |
| --- | --- |
| > 8.30 | C[C@@](CO)(NCc1cc(Cl)c(O[C@H]2CCc3c(-c4cccc(OCCCN5CCC(O)CC5)c4Cl)cccc32)cc1OCc1cncc(C#N)c1)C(=O)O |
| > 8.30 | Cc1c(OCCCN2CCC(O)CC2)cccc1-c1cccc2c1CC[C@@H]2Oc1cc(OCc2cc(C#N)cc(C#N)c2)c(CN[C@@](C)(CO)C(=O)O)cc1Cl |
| > 8.30 | N#Cc1cncc(COc2cc(O[C@H]3CCc4c(-c5cccc(OCCCN6CCC(F)CC6)c5Cl)cccc43)c(Cl)cc2CN[C@H]2CCOC[C@@H]2O)c1 |
| > 8.30 | Cc1c(OCCCN2CCC(O)CC2)cccc1-c1cccc2c1CC[C@@H]2Oc1cc(OCc2cncc(C#N)c2)c(CN[C@H](C(=O)O)[C@@H](C)O)cc1Cl |
